Series [1] concerns lacZ positive CRE BAG 2 cells. The series can be described thus: Cellular retention after loading by hypoosmotic shock (Example 12). The series is classed as cell-based. As for the experimental part:
5-Chloromethylfluorescein di-β-D-galactoside (CMFDG) (Example 1) is dissolved in DMSO to get 20 mM stock solution. A 40 mM stock solution offluorescein di-β-D-galaetoside (FDG) (Molecular Probes) is also made in DMSO as a control. The stock solutions are kept sealed in brown reagent bottles and stored at −20° C.
• (A) FCS-PBS Solution: Phosphate buffered saline (GIBCO), 4% fetal calf serum, 10 mM HEPES, pH 7.2 • (B) Staining Solution: CMFDG: 200 μL of stock solution is diluted with distilled water to 4 mL to get a 1 mM staining solution. FDG: 400 μL of stock solution is diluted to 4 mL with distilled water to get a 4 mM staining solution. 4. Staining and Examination of Cells:
Cells grown on coverslips are transferred to a Petri dish containing 3 mL of FCS-PBS solution and then incubated at 37° C. for 10 minutes. 3 mL of prewarmed (37° C.) 1 mM CMFDG staining solution is added to give a final dye concentration of 0.5 mM The solutions are mixed rapidly. The cells are incubated at 37° C. for exactly one minute. To stop the loading, the cells are transferred to a 1.8 mL of ice-cold FCS-PBS solution. FDG is loaded into cells by using the same procedure except that the final dye concentrations is 2 mM. Cells are then incubated under normal culture conditions to examine the dye retention. Cells are examined without washing at the desired time for their fluorescence under a Zeiss microscope equipped with a FITC filter set (EX 485 nm/EM 530 nm).

In series [2] the test system is lacZ-positive yeast strains EG123 and HR125-5d. The series can be described thus: Measurement of lacZ marker gene expression in transformed yeast (Example 13). The series is classed as cell-based, Saccharomyces cerevisiae. As for the experimental part: Because the CMFDG substrate generates a product that is so well retained by cells (Examples 11 and 12), it can be used for quantitative measurements of lacZ expression. • 1. A series of lacZ gene containing plasmids, each with a modified yeast promoter are used. When transferred into the appropriate strains of Saccharomyces cerevisiae, each plasmid confers a different level of lacZ gene expression. Yeast strains EG123 and HR125-5d, transformed with these plasmids, are grown in special minimal medium for plasmid maintenance and, after reaching the appropriate level of growth, are assayed for lacZ gene expression as measured by β-galactosidase activity. • 2. The β-galactosidase activity of one aliquot of these transformed yeast cells is measured using o-nitrophenyl-β-D-galactopyranoside (ONPG). • 3. Another aliquot of yeast cells is loaded with the fluorogenic substrate CMFDG as indicated in Example 12. Following washing to remove any dye that has leaked from the cells, the fluorescence intensity of the remaining cells as measured in a CytoFluor 2300 fluorescence plate reader (Millipore) can be measured over time. […] The amount of increase over time can be calculated from the slope of the plotted increase using linear regression. Each yeast strain accumulates fluorescent product at a characteristic rate, as reflected in the differences in the slopes of the various lines. • 4. […]

Series [3] deals with NIH 3T3 cells. The series can be described thus: Cytotoxicity (loss of fluorescence) assay using CMFDG (Example 15). The series is classed as cell-based. The following applies: 10 μM for 30 minutes at 37° C. The protocol: 1) Reagents 5-Chloromethylfluorescein di-β-D-galactopyranoside (CMFDG) (Example 1) and 7-(β-D-galactopyranosyloxy)-4-chloromethylcoumarin (Cl-MUG) (Example 3) are separately dissolved at 10 mM anhydrous DMSO and stored frozen at −20° C. until needed. Saponin is dissolved in PBS at a concentration of 0.04%.
NIH/3T3 cells (lacZ negative) and CRE BAG 2 cells (3T3 cells transformed with a retrovirus containing latZ gene) are employed for cellular assays. Both cell lines can be obtained from American Type Culture Collection Co., Rockville, Md. The cells are grown in a humidified atmosphere of 5% CO2 in Dulbecco's modified Eagle's medium supplemented with 10% calf serum, 50 μg/mL gentamicin, 300 μg/mL L-glutamine and 10 mM HEPES pH7.4.
The experiment is most conveniently performed in a CytoFluor™ 2300 fluorescence plate reader (Millipore) but can be performed qualitatively on a microscope slide or quantitatively in a flow cytometery, or in any system that permits washing of the cells following addition of the cytotoxic agent. […] Fluorescence of each well is determined using a 485 nm excitation filter, a 530 nm emission filter and sensitivity setting 1. […] Loss of fluorescence from the sample is correlated with the loss of integrity of the membrane and thus the cytotoxicity of the reagent.

Series [4] concerns NIH/3T3 cells and CRE BAG 2 cells. The following applies: 500 μM staining medium for 24 hours.
Excerpt: (§1) The same cell lines as used in Example 11 are used for these experiments.
For series [5] the test system is unchanged. The series can be described thus: Cytotoxicity of CMFDG staining medium (Example 12).
Excerpt: as §1

Take `O=C1OC2(c3ccc(O[C@@H]4O[C@H](CO)[C@H](O)[C@H](O)[C@H]4O)cc3Oc3cc(O[C@@H]4O[C@H](CO)[C@H](O)[C@H](O)[C@H]4O)ccc32)c2ccc(CCl)cc21` [CMFDG, 5-chloromethylfluorescein di-β-D-galactopyranoside]: the “staining of cells after 10 minutes incubation” value in series [1] (0.5 mM CMFDG versus 2 mM FDG, hypoosmotic shock loading) is “very well stained and much brighter”. Besides, the “stained cells apparently as bright as after 10 minutes incubation” value in series [1] (after incubation for 4 hours, 0.5 mM) is recorded as “more than 70%”. Also, the “fluorescence plotted over time” value in series [2] (each lacZ-positive yeast strain, CytoFluor 2300 plate reader) is on record as “linear increase in fluorescence”. Besides, the “fluorescence intensity over time versus level of lacZ expression (ONPG assay)” value in series [2] (transformed yeast cells) is listed as “correlates well”. In series [3], the “fluorescence of loaded cells” value is listed as “brightly fluorescent”. In series [4], the cell morphology entry is on record as “morphologically normal” and the “population doubling time versus control” value is “same population doubling time”. The cytotoxicity result in series [5] is “no cytotoxicity”.

Source of the values: patent USRE38723E1, “Haloalkyl derivatives of reporter molecules used to analyze metabolic activity in cells” (Molecular Probes, Inc., priority 1991, dated 2005).
